“Also recorded” adds a separate entry of the source.

Experiment [1] deals with F. prausnitzii. Particulars: cited from earlier work.
Experiment [2] deals with F. prausnitzii. Particulars: co-culture with Bifidobacterium longum subsp. infantis; cited from earlier work.
The subject of experiment [3] is Faecalibacterium prausnitzii. Briefly: in vitro incubation of 2′-FL with fecal inoculum of adult and elderly subjects, 16S rRNA microbiota composition. As to conditions: 2′-FL 10 mg/ml, 10% (v/v) fecal inoculum, samples 0-24 h, adults 25-50 yrs and 70-79 yrs. The class given is cell-based, human. On the procedure: A group of twelve randomly contacted adults—three men and three women aged 25-50 yrs and three men and three women aged 70-79 yrs—donated their fecal material for an in vitro study. Anoxically cryo-conserved fecal inoculum was defrosted and transferred to a 96% N2 and 4% H2 filled anaerobic chamber. Incubation of 2′-FL (10 mg/ml) was done with 10% (v/v) fecal inoculum in duplicate, while incubations without fecal inoculum and without carbohydrates served as controls using the standard ileal efflux medium. Samples were collected 0 h, 4 h, 10 h and 24 h after inoculation.
Three aliquots of 1 ml from each culture bottle were then distributed into 1.5 ml Eppendorf tubes. One of these aliquots was heated at 100° C. for 5 min to determine carbohydrates in the supernatant. Afterwards, all samples were centrifuged at 4° C. at 18600 relative centrifugal force (rcf) for 10 min. The supernatants from the other two tubes were pooled and stored at −20° C. for metabolite measurement, while the remaining pellets were stored at −80 C for microbiota composition analysis.
The microbiota composition was determined by sequencing of barcoded 16S ribosomal RNA (rRNA) gene amplicons using Illumina Hiseq2500 (2×150 bp). […]

For experiment [4], the system named is F. prausnitzii. Particulars: rats; cited from earlier work.

Turning to 2′-fucosyllactose [2′-FL], the “effect on F. prausnitzii abundance in monocultures” value in experiment [1] is “does not affect”. Besides, the “effect on F. prausnitzii abundance in co-culture” value in experiment [2] is reported as “not able to increase”. The “abundance of F. prausnitzii as compared to control medium without 2′-FL” value in experiment [3] is listed as “increase the abundance; also recorded: higher abundance”. For the same substance, the “F. prausnitzii abundance as a result of 2′-FL administration” value in experiment [4] is recorded as “decrease”.

These data come from patent publication US20230413887A1, “2'-FUCOSYLLACTOSE FOR USE IN STIMULATING F. PRAUSNITZII ABUNDANCE” (FrieslandCampina Nederland B.V., priority 2020, published 2023).
